Reference: patent US9376429B2, “Sodium channel blockers, preparation method thereof and use thereof” (Daewoong Pharmaceutical Co., Ltd., priority 2012, dated 2016)

Biological target: T1, sodium ion channel (Nav1.7) (Homo sapiens, UniProt Q15858)
T1 construct: host or cells: HEK293
Assay: Blocking effect against sodium ion channel (Nav1.7), IonFlux16 auto patch clamp, hNav1.7 HEK293 cells
Type: cell-based
Settings: peak current after 50 seconds treatment, eight concentrations
Summary of the method: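 HEK293 cells stably expressing human Nav1.7 were recorded by IonFlux16 automated patch clamp in extracellular solution (pH 7.45, final DMSO ≤0.3%). Peak current was measured after 50 s exposure to each of eight compound concentrations and expressed as percent inhibition relative to pre-compound current.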

T1 sequence (Q15858 whole entry): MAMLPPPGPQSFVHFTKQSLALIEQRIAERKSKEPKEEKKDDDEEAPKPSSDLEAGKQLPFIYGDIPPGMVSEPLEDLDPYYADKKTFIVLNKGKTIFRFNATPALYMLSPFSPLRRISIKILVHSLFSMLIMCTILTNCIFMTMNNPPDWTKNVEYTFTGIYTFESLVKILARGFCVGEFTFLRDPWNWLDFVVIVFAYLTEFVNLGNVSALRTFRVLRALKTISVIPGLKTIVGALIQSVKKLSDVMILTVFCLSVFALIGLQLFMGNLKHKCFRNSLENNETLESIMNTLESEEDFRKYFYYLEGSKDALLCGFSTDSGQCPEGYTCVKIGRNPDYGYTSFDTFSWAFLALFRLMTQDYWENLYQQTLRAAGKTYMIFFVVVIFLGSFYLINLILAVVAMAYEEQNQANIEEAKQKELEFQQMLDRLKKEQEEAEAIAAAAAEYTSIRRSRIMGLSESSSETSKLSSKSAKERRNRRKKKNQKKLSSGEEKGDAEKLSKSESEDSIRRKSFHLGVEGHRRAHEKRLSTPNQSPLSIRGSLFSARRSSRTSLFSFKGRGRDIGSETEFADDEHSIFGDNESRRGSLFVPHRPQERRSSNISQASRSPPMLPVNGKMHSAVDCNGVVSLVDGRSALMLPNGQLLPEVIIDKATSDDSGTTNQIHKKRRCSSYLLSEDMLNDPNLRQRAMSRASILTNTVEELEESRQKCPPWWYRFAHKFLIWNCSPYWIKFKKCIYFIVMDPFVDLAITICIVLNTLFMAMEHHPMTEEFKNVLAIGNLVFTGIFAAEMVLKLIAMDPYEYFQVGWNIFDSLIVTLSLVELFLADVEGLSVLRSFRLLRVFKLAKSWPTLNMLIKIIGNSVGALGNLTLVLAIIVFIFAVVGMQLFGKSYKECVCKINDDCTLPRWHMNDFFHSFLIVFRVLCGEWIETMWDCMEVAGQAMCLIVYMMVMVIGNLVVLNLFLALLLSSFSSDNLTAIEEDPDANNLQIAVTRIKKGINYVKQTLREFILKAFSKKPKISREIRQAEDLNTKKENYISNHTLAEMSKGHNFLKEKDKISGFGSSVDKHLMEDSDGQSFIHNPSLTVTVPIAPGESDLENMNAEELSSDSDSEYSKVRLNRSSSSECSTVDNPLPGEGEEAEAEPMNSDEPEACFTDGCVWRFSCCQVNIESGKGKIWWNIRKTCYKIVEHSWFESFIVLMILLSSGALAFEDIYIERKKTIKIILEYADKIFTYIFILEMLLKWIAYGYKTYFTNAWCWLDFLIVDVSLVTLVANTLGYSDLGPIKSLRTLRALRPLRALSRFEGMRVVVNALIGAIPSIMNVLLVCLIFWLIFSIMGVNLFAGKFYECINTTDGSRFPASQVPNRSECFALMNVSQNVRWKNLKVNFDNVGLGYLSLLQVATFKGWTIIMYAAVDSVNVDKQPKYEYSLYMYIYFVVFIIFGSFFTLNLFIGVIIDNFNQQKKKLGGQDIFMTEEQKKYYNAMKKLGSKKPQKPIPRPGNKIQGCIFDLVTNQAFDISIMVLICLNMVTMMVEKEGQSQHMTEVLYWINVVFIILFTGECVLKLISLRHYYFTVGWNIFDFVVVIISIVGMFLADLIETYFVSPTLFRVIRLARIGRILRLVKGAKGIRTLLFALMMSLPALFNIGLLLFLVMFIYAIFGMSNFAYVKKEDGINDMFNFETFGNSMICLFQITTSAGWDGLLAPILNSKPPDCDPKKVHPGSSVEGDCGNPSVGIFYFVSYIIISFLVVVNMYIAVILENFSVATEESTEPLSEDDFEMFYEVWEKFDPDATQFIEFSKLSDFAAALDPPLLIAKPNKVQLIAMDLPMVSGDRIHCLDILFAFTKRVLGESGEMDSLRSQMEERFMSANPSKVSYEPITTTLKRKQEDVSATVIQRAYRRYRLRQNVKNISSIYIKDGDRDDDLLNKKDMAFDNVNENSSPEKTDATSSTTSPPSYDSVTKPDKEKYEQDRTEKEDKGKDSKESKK

| SMILES | IC50 [nM] |
| --- | --- |
| N#Cc1cc(S(=O)(=O)Nc2cscn2)ccc1Oc1cnc(-c2ccc(F)c(F)c2)cc1-c1cncnc1 [Example 93, 3-cyano-4-((6-(3,4-difluorophenyl)-4-(pyrimidin-5-yl)pyridin-3-yl)oxy)-N-(thiazol-4-yl)benzenesulfonamide] | > 100 |
| N#Cc1cc(S(=O)(=O)Nc2cscn2)ccc1Oc1cnc(-c2ccc(C(F)(F)F)c(F)c2)cc1-c1cncnc1 [Example 94, 3-cyano-4-((6-(3-fluoro-4-(trifluoromethyl)phenyl)-4-(pyrimidin-5-yl)pyridin-3-yl)oxy)-N-(thiazol-4-yl)benzenesulfonamide] | > 100 |
| O=S(=O)(Nc1cscn1)c1cc(F)c(Oc2cnc(-c3cccc(F)c3)cc2-c2cncnc2)cc1F [Example 95, 2,5-difluoro-4-((6-(3-fluorophenyl)-4-(pyrimidin-5-yl)pyridin-3-yl)oxy)-N-(thiazol-4-yl)benzenesulfonamide] | > 100 |
| O=S(=O)(Nc1cscn1)c1cc(F)c(Oc2cnc(-c3ccc(F)c(F)c3)cc2-c2cncnc2)cc1F [Example 96, 4-((6-(3,4-difluorophenyl)-4-(pyrimidin-5-yl)pyridin-3-yl)oxy)-2,5-difluoro-N-(thiazol-4-yl)benzenesulfonamide] | > 100 |
| O=S(=O)(Nc1cscn1)c1cc(F)c(Oc2cnc(-c3ccc(C(F)(F)F)c(F)c3)cc2-c2cncnc2)cc1F [Example 97, 2,5-difluoro-4-((6-(3-fluoro-4-(trifluoromethyl)phenyl)-4-(pyrimidin-5-yl)pyridin-3-yl)oxy)-N-(thiazol-4-yl)benzenesulfonamide] | > 100 |
| O=S(=O)(Nc1cscn1)c1cc(Cl)c(Oc2cnc(-c3ccc(F)c(F)c3)cc2-c2cn[nH]c2)cc1F [Example 98, 5-chloro-4-((6-(3,4-difluorophenyl)-4-(1H-pyrazol-4-yl)pyridin-3-yl)oxy)-2-fluoro-N-(thiazol-4-yl)benzenesulfonamide] | > 100 |
| O=S(=O)(Nc1cscn1)c1cc(Cl)c(Oc2cnc(-c3cccc(F)c3)cc2-c2cncc(N3CCCC3)c2)cc1F [Example 99, 5-chloro-2-fluoro-4-((6′-(3-fluorophenyl)-5-(pyrrolidin-1-yl)-[3,4′-bipyridin]-3′-yl)oxy)-N-(thiazol-4-yl)benzenesulfonamide] | > 100 |
| O=S(=O)(Nc1cscn1)c1cc(Cl)c(Oc2cnc(-c3cccc(F)c3)cc2-c2cn(-c3cccnc3)cn2)cc1F [Example 100, 5-chloro-2-fluoro-4-((6-(3-fluorophenyl)-4-(1-(pyridin-3-yl)-1H-imidazol-4-yl)pyridin-3-yl)oxy)-N-(thiazol-4-yl)benzenesulfonamide] | > 100 |
| O=S(=O)(Nc1cscn1)c1cc(Cl)c(Oc2cnc(-c3cccc(F)c3)cc2-c2ccnc(N3CCOCC3)c2)cc1F [Example 101, 5-chloro-2-fluoro-4-((6-(3-fluorophenyl)-2′-morpholino-[4,4′-bipyridin]-3-yl)oxy)-N-(thiazol-4-yl)benzenesulfonamide] | 51 to 100 |
| O=S(=O)(Nc1cscn1)c1cc(Cl)c(Oc2cnc(-c3cccc(F)c3)cc2-c2ccnc(N3CCCCC3)c2)cc1F [Example 102, 5-chloro-2-fluoro-4-((6-(3-fluorophenyl)-2′-(piperidin-1-yl)-[4,4′-bipyridin]-3-yl)oxy)-N-(thiazol-4-yl)benzenesulfonamide] | > 100 |
| N#Cc1cc(S(=O)(=O)Nc2nccs2)ccc1Oc1ccc(-c2cccnc2F)nc1-c1ccoc1 [Example 103, 3-cyano-4-((2′-fluoro-6-(furan-3-yl)-[2,3′-bipyridin]-5-yl)oxy)-N-(thiazol-2-yl)benzenesulfonamide] | > 100 |
| N#Cc1cc(S(=O)(=O)Nc2nccs2)ccc1Oc1ccc(-c2ccc(F)nc2)nc1-c1ccoc1 [Example 104, 3-cyano-4-((6′-fluoro-6-(furan-3-yl)-[2,3′-bipyridin]-5-yl)oxy)-N-(thiazol-2-yl)benzenesulfonamide] | 51 to 100 |
| N#Cc1cc(S(=O)(=O)Nc2nccs2)ccc1Oc1ccc(-c2cccnc2)nc1-c1ccoc1 [Example 105, 3-cyano-4-((6-(furan-3-yl)-[2,3′-bipyridin]-5-yl)oxy)-N-(thiazol-2-yl)benzenesulfonamide] | > 100 |
| N#Cc1cc(S(=O)(=O)Nc2nccs2)ccc1Oc1ccc(-c2cncnc2)nc1-c1ccoc1 [Example 106, 3-cyano-4-((2-(furan-3-yl)-6-(pyrimidin-5-yl)pyridin-3-yl)oxy)-N-(thiazol-2-yl)benzenesulfonamide] | > 100 |
| Cn1nccc1-c1nc(-c2ccnc(F)c2)ccc1Oc1ccc(S(=O)(=O)Nc2nccs2)cc1C#N [Example 107, 3-cyano-4-((2′-fluoro-6-(1-methyl-1H-pyrazol-5-yl)-[2,4′-bipyridin]-5-yl)oxy)-N-(thiazol-2-yl)benzenesulfonamide] | > 100 |
| N#Cc1cc(S(=O)(=O)Nc2nccs2)ccc1Oc1ccc(-c2ccccc2F)nc1-c1ccoc1 [Example 108, 3-cyano-4-((6-(2-fluorophenyl)-2-(furan-3-yl)pyridin-3-yl)oxy)-N-(thiazol-2-yl)benzenesulfonamide] | 51 to 100 |
| N#Cc1cc(S(=O)(=O)Nc2nccs2)ccc1Oc1ccc(-c2ccc(F)cc2)nc1-c1ccoc1 [Example 109, 3-cyano-4-((6-(4-fluorophenyl)-2-(furan-3-yl)pyridin-3-yl)oxy)-N-(thiazol-2-yl)benzenesulfonamide] | < 50 |
| N#Cc1cc(S(=O)(=O)Nc2nccs2)ccc1Oc1ccc(-c2cccc(F)c2)nc1-c1ccoc1 [Example 110, 3-cyano-4-((6-(3-fluorophenyl)-2-(furan-3-yl)pyridin-3-yl)oxy)-N-(thiazol-2-yl)benzenesulfonamide] | < 50 |
| N#Cc1cc(S(=O)(=O)Nc2nccs2)ccc1Oc1ccc(-c2ccncc2)nc1-c1ccoc1 [Example 111, 3-cyano-4-((6-(furan-3-yl)-[2,4′-bipyridin]-5-yl)oxy)-N-(thiazol-2-yl)benzenesulfonamide] | > 100 |
| N#Cc1cc(S(=O)(=O)Nc2nccs2)ccc1Oc1ccc(-c2ccnc(F)c2)nc1-c1ccoc1 [Example 112, 3-cyano-4-((2′-fluoro-6-(furan-3-yl)-[2,4′-bipyridin]-5-yl)oxy)-N-(thiazol-2-yl)benzenesulfonamide] | 51 to 100 |
| N#Cc1cc(S(=O)(=O)Nc2nccs2)ccc1Oc1ccc(-c2ccsc2)nc1-c1ccoc1 [Example 113, 3-cyano-4-((2-(furan-3-yl)-6-(thiophen-3-yl)pyridin-3-yl)oxy)-N-(thiazol-2-yl)benzenesulfonamide] | > 100 |
| N#Cc1cc(S(=O)(=O)Nc2nccs2)ccc1Oc1ccc(-c2ccoc2)nc1-c1ccoc1 [Example 114, 3-cyano-4-((2,6-di(furan-3-yl)pyridin-3-yl)oxy)-N-(thiazol-2-yl)benzenesulfonamide] | > 100 |
| Cn1nccc1-c1nc(-c2ccc(F)nc2)ccc1Oc1ccc(S(=O)(=O)Nc2nccs2)cc1C#N [Example 115, 3-cyano-4-((6′-fluoro-6-(1-methyl-1H-pyrazol-5-yl)-[2,3′-bipyridin]-5-yl)oxy)-N-(thiazol-2-yl)benzenesulfonamide] | > 100 |
| Cn1nccc1-c1nc(-c2cccnc2F)ccc1Oc1ccc(S(=O)(=O)Nc2nccs2)cc1C#N [Example 116, 3-cyano-4-((2′-fluoro-6-(1-methyl-1H-pyrazol-5-yl)-[2,3′-bipyridin]-5-yl)oxy)-N-(thiazol-2-yl)benzenesulfonamide] | > 100 |
